Test results published in patent US6841519B1, “Isoxazoline derivatives and herbicides containing the same as the active ingredient” (Kumiai Chemical Industry Co., Ltd., priority 1999, dated 2005).

Legend:
Assay type in all cases: in vivo
[1] = tested on: rice (Or); test: Test for crop selectivity by paddy field soil treatment (Test Example 4), phytotoxicity to rice; conditions: transplanted two-leaf stage rice, 100 g/10 a active ingredient, 21st day
Description: (§1) [table] <Test Example 4> Test For Crop Selectivity By Paddy Field Soil Treatment A paddy field soil was filled in a plastic pot of 100 cm^2 and subjected to puddling. Seeds of Echinochloa oryzicola Vasing. (Eo) were sowed; two-leaf stage seedlings of rice (Or) were transplanted in a depth of 2 cm; and water was filled in a depth of 3 cm. Next day, wettable powders produced in accordance with the Formulation 1 were diluted with water and dropped on the water surface. The application amount of each wettable powder was 100 g per 10 ares in terms of the active ingredient. Then, breeding was made in a greenhouse. At the 21st day from the treatment, the phytotoxicity and herbicidal effect of each wettable powder were examined in accordance with the standard shown in Table 40.

[2] = tested on: Echinochloa crus-galli (L.) Beauv. var. crusgall (Ec); test: Test for herbicidal effect by upland field soil treatment (Test Example 2), Ec; conditions: application amount (active ingredient) 100 g/10 a, examined at the 21st day from the treatment, index per Table 40
Method in brief: (§2)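 Pre-emergence soil treatment: wettable powder diluted in water and sprayed on soil just sown with Ec and Se seeds, delivering 100 g active ingredient per 10 ares in 100 liters per 10 ares. Herbicidal effect was rated against a fixed scale 21 days later, after greenhouse growth.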

[3] = tested on: Echinochloa oryzicola Vasing. (Eo); test: Test for crop selectivity by paddy field soil treatment (Test Example 4), herbicidal effect on Eo; conditions: 100 g/10 a active ingredient, 21st day
Description: as §1

[4] = tested on: Echinochloa oryzicola Vasing. (Eo); test: Test for herbicidal effect by paddy field soil treatment (Test Example 1); conditions: application amount (active ingredient) 100 g/10 a, examined at the 21st day from the treatment, index per Table 40
Method in brief: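 Scored on a standard scale at day 21 in the greenhouse: herbicidal effect of wettable powder applied to flooded water (3 cm depth) at 100 g a.i./10 ares, one day after sowing Eo into puddled paddy soil.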

[5] = tested on: Setaria viridis (L.) Beauv. (Se); test: Test for herbicidal effect by upland field soil treatment (Test Example 2), Se; conditions: application amount (active ingredient) 100 g/10 a, examined at the 21st day from the treatment, index per Table 40
Method in brief: as §2

For `CCC1(C)CC(S(=O)(=O)Cc2cccc(F)c2)=NO1` (centres unmarked) [Compound 1-190], the “Phytotoxicity to Or” value [1] was 1 (A herbicidal effect or phytotoxicity of 10% to less than 30%), the “Herbicidal effect to Ec” value [2] was 5 (A herbicidal effect or phytotoxicity of 90% or more) and the “Herbicidal effect to Eo” value [3] was 5 (A herbicidal effect or phytotoxicity of 90% or more). The “Herbicidal effect to Eo” value [4] was 5 (A herbicidal effect or phytotoxicity of 90% or more) and the “Herbicidal effect to Se” value [5] was 5 (A herbicidal effect or phytotoxicity of 90% or more).
With `CCC1(C)CC(SCc2c(F)cccc2F)=NO1` (centres unmarked) [Compound 1-198] the “Phytotoxicity to Or” value [1] was 1 (A herbicidal effect or phytotoxicity of 10% to less than 30%), the “Herbicidal effect to Ec” value [2] was 4 (A herbicidal effect or phytotoxicity of 70% to less than 90%) and the “Herbicidal effect to Eo” value [3] was 5 (A herbicidal effect or phytotoxicity of 90% or more). The “Herbicidal effect to Eo” value [4] was 5 (A herbicidal effect or phytotoxicity of 90% or more) and the “Herbicidal effect to Se” value [5] was 5 (A herbicidal effect or phytotoxicity of 90% or more).
For `CCC1(C)CC(S(=O)(=O)Cc2ccccc2OC)=NO1` (centres unmarked) [Compound 1-228], the “Phytotoxicity to Or” value [1] was 1 (A herbicidal effect or phytotoxicity of 10% to less than 30%), the “Herbicidal effect to Ec” value [2] was 5 (A herbicidal effect or phytotoxicity of 90% or more) and the “Herbicidal effect to Eo” value [3] was 5 (A herbicidal effect or phytotoxicity of 90% or more). The “Herbicidal effect to Eo” value [4] was 5 (A herbicidal effect or phytotoxicity of 90% or more) and the “Herbicidal effect to Se” value [5] was 5 (A herbicidal effect or phytotoxicity of 90% or more).
For `CCC1(C)CC(S(=O)(=O)Cc2cccc(C#N)c2)=NO1` (centres unmarked) [Compound 1-328], the “Phytotoxicity to Or” value [1] was 0 (A herbicidal effect or phytotoxicity of 0% to less than 10%), the “Herbicidal effect to Ec” value [2] was 4 (A herbicidal effect or phytotoxicity of 70% to less than 90%) and the “Herbicidal effect to Eo” value [3] was 5 (A herbicidal effect or phytotoxicity of 90% or more). The “Herbicidal effect to Eo” value [4] was 5 (A herbicidal effect or phytotoxicity of 90% or more) and the “Herbicidal effect to Se” value [5] was 4 (A herbicidal effect or phytotoxicity of 70% to less than 90%).
`CCC1(C)CC(S(=O)(=O)Cc2cccc([N+](=O)[O-])c2)=NO1` (centres unmarked) [Compound 1-331] was tested, and the “Phytotoxicity to Or” value [1] was 0 (A herbicidal effect or phytotoxicity of 0% to less than 10%), the “Herbicidal effect to Ec” value [2] was 5 (A herbicidal effect or phytotoxicity of 90% or more) and the “Herbicidal effect to Eo” value [3] was 5 (A herbicidal effect or phytotoxicity of 90% or more). For the same compound, the “Herbicidal effect to Eo” value [4] was 5 (A herbicidal effect or phytotoxicity of 90% or more) and the “Herbicidal effect to Se” value [5] was 5 (A herbicidal effect or phytotoxicity of 90% or more).
`CC(C)C1(C)CC(S(=O)(=O)Cc2c(F)cccc2F)=NO1` (centres unmarked) [Compound 1-368] was tested, and the “Phytotoxicity to Or” value [1] was 1 (A herbicidal effect or phytotoxicity of 10% to less than 30%), the “Herbicidal effect to Ec” value [2] was 5 (A herbicidal effect or phytotoxicity of 90% or more) and the “Herbicidal effect to Eo” value [3] was 5 (A herbicidal effect or phytotoxicity of 90% or more). The “Herbicidal effect to Eo” value [4] was 5 (A herbicidal effect or phytotoxicity of 90% or more) and the “Herbicidal effect to Se” value [5] was 4 (A herbicidal effect or phytotoxicity of 70% to less than 90%).
For `O=S(=O)(Cc1c(F)cccc1F)C1=NOC2(CCCCC2)C1` [Compound 1-384], the “Phytotoxicity to Or” value [1] was 0 (A herbicidal effect or phytotoxicity of 0% to less than 10%), the “Herbicidal effect to Ec” value [2] was 5 (A herbicidal effect or phytotoxicity of 90% or more) and the “Herbicidal effect to Eo” value [3] was 5 (A herbicidal effect or phytotoxicity of 90% or more). For the same compound, the “Herbicidal effect to Eo” value [4] was 5 (A herbicidal effect or phytotoxicity of 90% or more) and the “Herbicidal effect to Se” value [5] was 4 (A herbicidal effect or phytotoxicity of 70% to less than 90%).
